{"source": "paper PMC11900313", "about": "“Exploring the Potential of Coumarin Derivatives on Serotonin Receptors 5-HT1A and 5HT2A” (International Journal of Molecular Sciences, 2025)", "key": {"5-HT1A receptor [1]": {"tested_on": "5-HT1A receptor", "design": "method as in PMID 36769117", "conditions": "previous study; cited from earlier work"}, "5-HT1A receptor [2]": {"target": "5-HT1A receptor", "conditions": "earlier study; cited from earlier work"}, "5-HT2A receptor [3]": {"target": "5-HT2A receptor", "conditions": "earlier study; cited from earlier work"}, "5-HT1A receptor [4]": {"target": "T1, 5-HT1A receptor (Rattus norvegicus, UniProt P19327)", "T1 construct": "from tissue; host or cells: Sprague-Dawley rat hippocampus membranes", "T1 sequence (P19327 1-422)": "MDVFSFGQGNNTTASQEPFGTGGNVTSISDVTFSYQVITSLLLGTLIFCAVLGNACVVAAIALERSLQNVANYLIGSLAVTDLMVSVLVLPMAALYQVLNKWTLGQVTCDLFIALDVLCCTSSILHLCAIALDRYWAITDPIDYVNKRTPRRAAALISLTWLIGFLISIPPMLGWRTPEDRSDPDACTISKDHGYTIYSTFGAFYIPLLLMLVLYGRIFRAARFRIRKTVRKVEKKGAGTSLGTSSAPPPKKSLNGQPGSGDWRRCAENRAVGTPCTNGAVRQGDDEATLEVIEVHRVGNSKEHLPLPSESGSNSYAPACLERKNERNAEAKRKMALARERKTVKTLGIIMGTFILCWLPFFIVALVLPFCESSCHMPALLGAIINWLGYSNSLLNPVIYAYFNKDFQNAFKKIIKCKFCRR", "assay": "5-HT1A competitive radioligand binding assay with [3H]8-OH-DPAT, hippocampal membranes", "design": "species or system Sprague–Dawley rats", "conditions": "[3H]8-OH-DPAT, hippocampal membranes; 95% CI in brackets", "experimental": "(§1) Sprague–Dawley rats were decapitated under isoflurane anesthesia. Brains were rapidly removed and placed on ice. Hippocampi (for the 5-HT1A assay) or frontal cortices (for the 5-HT2A assay) were dissected on a Petri dish. The tissue from 10 rats was homogenized in 30 vol. homogenization buffer (50 mM Tris-HCl, pH = 4.7, 1 mM EDTA, 1mM dithiothreitol) with a hand held Teflon-glass homogenizer. The homogenate was centrifuged at 48,000× g at 4 °C for 15 min. The pellet was suspended and homogenized in homogenization buffer and incubated for 10 min at 36 °C. The centrifugation and suspension steps were repeated twice. The final pellet was homogenized in 5 vol. 50 mM Tris-HCl, pH = 7.4 buffer and stored at −80 °C for no longer than 6 months.\n(§2) Non-specific binding was determined with 10 μM serotonin. The final DMSO concentration in the assay was 5%. After incubation, the reaction mixture was deposited with the FilterMate-96 Harvester (Revvity, Waltham, MA, USA) onto Unifilter® GF/C plates (Revvity, Waltham, MA, USA) presoaked in 0.4% PEI for 1 h. Each well was washed with 2 mL of 50 mM Tris-HCl (pH 7.4) buffer to separate bound ligands from free. Plates were left to dry overnight. Then, 35 µL of Microscint-20 scintillation fluid (Revvity, Waltham, MA, USA) was added to each filter well and left to equilibrate for 2 h. Filter-bound radioactivity was counted in a MicroBeta^2 LumiJet scintillation counter (Revvity, Waltham, MA, USA). Binding curves were fitted with one site non-linear regression. The binding affinity (Ki) for each compound was calculated from the EC50 values with the Cheng–Prusoff equation from two separate experiments."}, "5-HT2A receptor [5]": {"target": "T2, 5-HT2A receptor (Rattus norvegicus, UniProt P14842)", "T2 construct": "from tissue; host or cells: Sprague-Dawley rat frontal cortex membranes", "T2 sequence (P14842 whole entry)": "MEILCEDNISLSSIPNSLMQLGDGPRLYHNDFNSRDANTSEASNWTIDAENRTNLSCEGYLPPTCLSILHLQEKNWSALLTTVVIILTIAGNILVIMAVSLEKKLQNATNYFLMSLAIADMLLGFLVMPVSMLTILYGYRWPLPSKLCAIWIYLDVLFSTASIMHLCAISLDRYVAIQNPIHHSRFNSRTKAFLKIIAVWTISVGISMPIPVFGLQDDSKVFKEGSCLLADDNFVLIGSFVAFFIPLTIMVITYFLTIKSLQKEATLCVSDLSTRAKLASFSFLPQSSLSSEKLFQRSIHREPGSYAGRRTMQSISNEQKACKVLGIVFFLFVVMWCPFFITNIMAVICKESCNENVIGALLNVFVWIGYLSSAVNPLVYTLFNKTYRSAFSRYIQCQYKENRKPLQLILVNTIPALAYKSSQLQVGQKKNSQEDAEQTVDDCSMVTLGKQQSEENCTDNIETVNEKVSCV", "assay": "5-HT2A competitive radioligand binding assay with [3H]ketanserin, frontal cortex membranes", "design": "species or system Sprague–Dawley rats", "experimental": "as §1, §2"}, "5-HT1A receptor [6]": {"target": "T1, 5-HT1A receptor", "assay": "Antagonist activity at 5-HT1A receptors, [35S]GTPγS assay with 8-OH-DPAT stimulation", "format": "biochemical, Sprague–Dawley rats", "conditions": "for IC50: antagonist activity, [35S]GTPγS", "experimental": "as §1\nThen, hippocampal membrane homogenates (15 μg/mL) were added to each well, and the mixture was incubated for 90 min. at 37 °C in a total volume of 250 µL. Non-specific binding was determined with 10 µM of unlabeled GTPγS. The reaction was terminated by vacuum filtration onto GF/C Unifilter Plates (Revvity, Waltham, MA, USA) presoaked with 50 mM Tris-HCl (pH = 7.4) for 1 h with the FilterMate Harvester® (Revvity, Waltham, MA, USA). The samples were then rapidly washed with 2 mL of 50 mM Tris-HCl (pH = 7.4) buffer. The Unifilter plates were dried overnight at RT. After drying, 35 µL of EcoScint-20 scintillant (Revvity, Waltham, MA, USA) was added to each well. Radioactivity was counted in a Trilux MicroBeta^2 counter (Revvity, Waltham, MA, USA). […] The curves were fitted with a one-site non-linear regression model to determine inhibitory potency (IC50). The experiments were repeated twice."}, "[7]": {"conditions": "read-out: 5-HT2A Ki (nM, 95% CI)"}, "[8]": {"conditions": "1 µM 8-OH-DPAT, 95% CI in brackets, read-out: 5-HT1A IC50 (µM, 95% CI)"}}, "note": "pKi: −log10 of the molar value. Where “and” joins values, the source holds several entries; their conditions need not be identical. Equal values may be shown once. Read-outs that look alike come from different tables or passages of the source."}
{"molecule": "COc1cccc(N2CCN(CCCCOc3cc4oc(=O)cc(C)c4cc3C(C)=O)CC2)c1", "note": "[6-acetyl-7-{4-[4-(3-methoxyphenyl)piperazin-1-yl]butoxy}-4-methylcoumarin]", "values": [{"measurement": "5-HT1A receptor activity (agonist/antagonist)", "setting": "5-HT1A receptor [1]", "value": "agonist"}]}
{"molecule": "COc1ccccc1N1CCN(CCCOc2ccc3c(C)cc(=O)oc3c2C(C)=O)CC1", "note": "[8-acetyl-7-{3-[4-(2-methoxyphenyl)piperazin-1-yl]propoxy}-4-methylcoumarin]", "values": [{"measurement": "pKi", "setting": "5-HT1A receptor [2]", "value": 9.22}, {"measurement": "pKi", "setting": "5-HT2A receptor [3]", "value": 8.10}]}
{"molecule": "COc1ccccc1N1CCN(CC(O)COc2cc3oc(=O)cc(C)c3cc2C(C)=O)CC1", "note": "(centres unmarked) [Compound 1, 6-Acetyl-7-(2-hydroxy-3-(4-(2-methoxyphenyl)piperazin-1-yl)propoxy)-4-methyl-2H-chromen-2-one]", "values": [{"measurement": "Ki", "setting": "5-HT1A receptor [4]", "value": 243, "unit": "nM"}, {"measurement": "Ki", "setting": "5-HT2A receptor [5]; [7]", "value": 1850, "unit": "nM"}, {"measurement": "IC50", "setting": "5-HT1A receptor [6]; [8]", "value": 331, "unit": "µM"}]}
{"molecule": "COc1cccc(N2CCN(CC(O)COc3cc4oc(=O)cc(C)c4cc3C(C)=O)CC2)c1", "note": "(centres unmarked) [Compound 2, 6-Acetyl-7-(2-hydroxy-3-(4-(3-methoxyphenyl)piperazin-1-yl)propoxy)-4-methyl-2H-chromen-2-one]", "values": [{"measurement": "Ki", "setting": "5-HT1A receptor [4]", "value": 196, "unit": "nM"}, {"measurement": "Ki", "setting": "5-HT2A receptor [5]; [3H]ketanserin, frontal cortex membranes, 95% CI in brackets", "value": 83, "unit": "nM"}, {"measurement": "IC50", "setting": "5-HT1A receptor [6]; [8]", "value": "58.5 µM and 59 µM"}]}
{"molecule": "COc1ccccc1N1CCN(CC(O)COc2cc(=O)oc3ccccc23)CC1", "note": "(centres unmarked) [Compound 3, 4-(2-Hydroxy-3-(4-(2-methoxyphenyl)piperazin-1-yl)propoxy)-2H-chromen-2-one]", "values": [{"measurement": "Ki", "setting": "5-HT1A receptor [4]", "value": 243, "unit": "nM"}, {"measurement": "Ki", "setting": "5-HT2A receptor [5]; [7]", "value": 4010, "unit": "nM"}, {"measurement": "IC50", "setting": "5-HT1A receptor [6]; [8]", "value": "67.8 µM and 68 µM"}]}
{"molecule": "COc1cccc(N2CCN(CC(O)COc3cc(=O)oc4ccccc34)CC2)c1", "note": "(centres unmarked) [Compound 4, 4-(2-Hydroxy-3-(4-(3-methoxyphenyl)piperazin-1-yl)propoxy)-2H-chromen-2-one]", "values": [{"measurement": "Ki", "setting": "5-HT1A receptor [4]", "value": 190, "unit": "nM"}, {"measurement": "Ki", "setting": "5-HT2A receptor [5]; [7]", "value": 315, "unit": "nM"}, {"measurement": "IC50", "setting": "5-HT1A receptor [6]; [8]", "value": 10, "unit": "µM"}]}
{"molecule": "COc1ccccc1N1CCN(CC(O)COc2cc(C)cc3oc(=O)cc(C)c23)CC1", "note": "(centres unmarked) [Compound 5, 5-(2-Hydroxy-3-(4-(2-methoxyphenyl)piperazin-1-yl)propoxy)-4,7-dimethyl-2H-chromen-2-one]", "values": [{"measurement": "Ki", "setting": "5-HT1A receptor [4]", "value": 90, "unit": "nM"}, {"measurement": "Ki", "setting": "5-HT2A receptor [5]; [7]", "value": 1180, "unit": "nM"}, {"measurement": "IC50", "setting": "5-HT1A receptor [6]; [8]", "value": 14.7, "unit": "µM"}]}
{"molecule": "COc1cccc(N2CCN(CC(O)COc3cc(C)cc4oc(=O)cc(C)c34)CC2)c1", "note": "(centres unmarked) [Compound 6, 5-(2-Hydroxy-3-(4-(3-methoxyphenyl)piperazin-1-yl)propoxy)-4,7-dimethyl-2H-chromen-2-one]", "values": [{"measurement": "Ki", "setting": "5-HT1A receptor [4]", "value": 176, "unit": "nM"}, {"measurement": "Ki", "setting": "5-HT2A receptor [5]; [7]", "value": 662, "unit": "nM"}, {"measurement": "IC50", "setting": "5-HT1A receptor [6]; [8]", "value": 6.5, "unit": "µM"}]}
{"molecule": "COc1ccccc1N1CCN(CC(O)COc2c(C(C)=O)c(C)cc3oc(=O)cc(C)c23)CC1", "note": "(centres unmarked) [Compound 7, 6-Acetyl-5-(2-hydroxy-3-(4-(2-methoxyphenyl)piperazin-1-yl)propoxy)-4,7-dimethyl-2H-chromen-2-one]", "values": [{"measurement": "Ki", "setting": "5-HT1A receptor [4]", "value": 90, "unit": "nM"}, {"measurement": "Ki", "setting": "5-HT2A receptor [5]; [7]", "value": 4150, "unit": "nM"}, {"measurement": "IC50", "setting": "5-HT1A receptor [6]; [8]", "value": 2.4, "unit": "µM"}]}
{"molecule": "COc1cccc(N2CCN(CC(O)COc3c(C(C)=O)c(C)cc4oc(=O)cc(C)c34)CC2)c1", "note": "(centres unmarked) [Compound 8, 6-Acetyl-5-(2-hydroxy-3-(4-(3-methoxyphenyl)piperazin-1-yl)propoxy)-4,7-dimethyl-2H-chromen-2-one]", "values": [{"measurement": "Ki", "setting": "5-HT1A receptor [4]", "value": 1780, "unit": "nM"}, {"measurement": "Ki", "setting": "5-HT2A receptor [5]; [7]", "value": 115, "unit": "nM"}, {"measurement": "IC50", "setting": "5-HT1A receptor [6]; [8]", "value": 16.2, "unit": "µM"}]}
{"molecule": "COc1ccccc1N1CCN(CC(O)COc2ccc3c(C)cc(=O)oc3c2)CC1", "note": "(centres unmarked) [Compound 9, 7-(2-Hydroxy-3-(4-(2-methoxyphenyl)piperazin-1-yl)propoxy)-4-methyl-2H-chromen-2-one]", "values": [{"measurement": "Ki", "setting": "5-HT1A receptor [4]", "value": 245, "unit": "nM"}, {"measurement": "Ki", "setting": "5-HT2A receptor [5]; [7]", "value": 291, "unit": "nM"}, {"measurement": "IC50", "setting": "5-HT1A receptor [6]; [8]", "value": "2.42 µM and 2.4 µM"}]}
{"molecule": "COc1cccc(N2CCN(CC(O)COc3ccc4c(C)cc(=O)oc4c3)CC2)c1", "note": "(centres unmarked) [Compound 10, 7-(2-Hydroxy-3-(4-(3-methoxyphenyl)piperazin-1-yl)propoxy)-4-methyl-2H-chromen-2-one]", "values": [{"measurement": "Ki", "setting": "5-HT1A receptor [4]", "value": 87, "unit": "nM"}, {"measurement": "Ki", "setting": "5-HT2A receptor [5]; [7]", "value": 260, "unit": "nM"}, {"measurement": "IC50", "setting": "5-HT1A receptor [6]; [8]", "value": 89.5, "unit": "µM"}]}
{"molecule": "COc1ccccc1N1CCN(CC(O)COc2ccc3c(C)cc(=O)oc3c2C(C)=O)CC1", "note": "(centres unmarked) [Compound 11, 8-Acetyl-7-(2-hydroxy-3-(4-(2-methoxyphenyl)piperazin-1-yl)propoxy)-4-methyl-2H-chromen-2-one]", "values": [{"measurement": "Ki", "setting": "5-HT2A receptor [5]; [7]", "value": 6160, "unit": "nM"}, {"measurement": "IC50", "setting": "5-HT1A receptor [6]; given in nM in text, read-out: 5-HT1A IC50", "value": 0.043, "unit": "µM"}, {"measurement": "5-HT1A functional profile", "setting": "5-HT1A receptor [6]; functional assays", "value": "significant 5-HT1A antagonistic profile"}]}
{"molecule": "COc1cccc(N2CCN(CC(O)COc3ccc4c(C)cc(=O)oc4c3C(C)=O)CC2)c1", "note": "(centres unmarked) [Compound 12, 8-Acetyl-7-(2-hydroxy-3-(4-(3-methoxyphenyl)piperazin-1-yl)propoxy)-4-methyl-2H-chromen-2-one]", "values": [{"measurement": "Ki", "setting": "5-HT1A receptor [4]", "value": 264, "unit": "nM"}, {"measurement": "Ki", "setting": "5-HT2A receptor [5]; [7]", "value": 67, "unit": "nM"}]}
{"molecule": "COc1ccccc1N1CCN(CC(O)COc2ccc3ccc(=O)oc3c2)CC1", "note": "(centres unmarked) [Compound 13, 7-(2-Hydroxy-3-(4-(2-methoxyphenyl)piperazin-1-yl)propoxy)-2H-chromen-2-one]", "values": [{"measurement": "Ki", "setting": "5-HT1A receptor [4]", "value": 222, "unit": "nM"}, {"measurement": "Ki", "setting": "5-HT2A receptor [5]; [7]", "value": 18, "unit": "nM"}, {"measurement": "IC50", "setting": "5-HT1A receptor [6]; [8]", "value": 1.43, "unit": "µM"}]}
{"molecule": "COc1cccc(N2CCN(CC(O)COc3ccc4ccc(=O)oc4c3)CC2)c1", "note": "(centres unmarked) [Compound 14, 7-(2-Hydroxy-3-(4-(3-methoxyphenyl)piperazin-1-yl)propoxy)-2H-chromen-2-one]", "values": [{"measurement": "Ki", "setting": "5-HT1A receptor [4]", "value": 135, "unit": "nM"}, {"measurement": "Ki", "setting": "5-HT2A receptor [5]; [7]", "value": 68, "unit": "nM"}, {"measurement": "IC50", "setting": "5-HT1A receptor [6]; [8]", "value": 112, "unit": "µM"}]}
